# Target: Beta-3 Adrenergic Receptor (Homo sapiens (Human), UniProt P13945)
# Assay: Homogeneous Time-Resolved Fluorescence (HTRF) cAMP antagonist assay, IC50 determination
# Format: cell-based
# Settings: CHO-K1 cells stably expressing recombinant receptor, isoproterenol at EC90
# Protocol: HTRF cAMP assays were performed according to manufacturer's instructions (Cisbio, cAMP Dynamic 2 Assay Kit; #62AM4PEJ). CHO-K1 cells stably expressing recombinant receptor were harvested and suspended in warm PBS to make a 300,000 cells/mL stock. This cell suspension was dispensed into 384 well assay plates (PerkinElmer ProxiPlate #6008280) at 5 μL per well (1500 cells/well) along with a cAMP standard curve.
# Compounds were dissolved and serially diluted (5-fold) in DMSO to generate a 10-point dose response stock. The stock was then diluted 100-fold in assay buffer (PBS containing 1 mM IBMX) before a volume of 2.5 μL was added to the cells (the final, top concentration of compound in the dose-response is typically 10 or 100 μM). After a brief incubation, 2.5 μL of isoproterenol stock, prepared at a concentration 4 times its EC90 at the receptor of interest, was added to the wells. The EC90 for isoproterenol, a beta-adrenergic agonist, was determined in separate experiments using standard methods to measure agonist potencies.
# Following a 1-hour incubation at room temperature, 5 μL of cAMP-D2 Reagent diluted in Lysis Buffer was added to each well followed by 5 μL of Cryptate Reagent. Plates were further incubated at room temperature for 1 hour prior to reading. Time resolved fluorescence measurements were collected on a suitable, HTRF-capable plate reader.
# Counts from the plate reader were fit to the cAMP standard curve on the assay plate in order to determine cAMP concentrations in each well, and these values were used to construct dose-response curves to obtain IC50 values.
# Beta-3 Adrenergic Receptor, sequence (P13945 whole entry, species assumed): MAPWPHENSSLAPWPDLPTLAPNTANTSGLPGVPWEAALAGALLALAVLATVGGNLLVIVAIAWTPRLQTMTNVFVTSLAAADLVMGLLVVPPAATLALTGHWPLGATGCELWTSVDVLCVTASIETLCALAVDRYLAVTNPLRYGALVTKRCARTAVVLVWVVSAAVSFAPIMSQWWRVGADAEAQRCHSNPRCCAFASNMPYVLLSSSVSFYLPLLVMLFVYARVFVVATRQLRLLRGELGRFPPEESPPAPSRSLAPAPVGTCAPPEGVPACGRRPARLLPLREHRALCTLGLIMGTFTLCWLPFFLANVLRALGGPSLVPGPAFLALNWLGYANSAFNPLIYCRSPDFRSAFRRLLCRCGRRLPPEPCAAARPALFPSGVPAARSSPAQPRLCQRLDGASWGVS
row,Compound,IC50 [nM]
1,"CNS(=O)(=O)c1cccc(OC[C@@H](O)CN[C@H]2COC3(CCN(c4nccc(N)n4)CC3)C2)c1 [Compound 569, 3-((S)-3-((R)-8-(4-aminopyrimidin-2-yl)-1-oxa-8-azaspiro[4.5]decan-3-ylamino)-2-hydroxypropoxy)-N-methylbenzenesulfonamide]",427
2,"CNS(=O)(=O)c1cccc(OC[C@@H](O)CN[C@@H]2COC3(CCN(S(=O)(=O)c4ccc5ccccc5c4)CC3)C2)c1 [Compound 29, 3—((S)-2-hydroxy-3-((S)-8-(naphthalen-2-ylsulfonyl)-1-oxa-8-azaspiro[4.5]decan-3-ylamino)propoxy)-N-methylbenzenesulfonamide]",4.53
3,"CNS(=O)(=O)c1cccc(OC[C@@H](O)CN[C@H]2COC3(CCN(S(=O)(=O)c4ccc(OC)c(C)c4)CC3)C2)c1 [Compound 267, 3-((S)-2-hydroxy-3-((R)-8-(4-methoxy-3-methylphenylsulfonyl)-1-oxa-8-azaspiro[4.5]decan-3-ylamino)propoxy)-N-methylbenzenesulfonamide]",9.43
4,"CN(C)CCCNS(=O)(=O)c1cccc(OC[C@@H](O)CNC2COC3(CCN(S(=O)(=O)c4cccc(Cl)c4)CC3)C2)c1 (stereo partly drawn) [Compound 307, 3-((2S)-3-(8-(3-chlorophenylsulfonyl)-1-oxa-8-azaspiro[4.5]decan-3-ylamino)-2-hydroxypropoxy)-N-(3-(dimethylamino)propyl)benzenesulfonamide]",3370
5,"CCn1cnc2cc(S(=O)(=O)N3CCC4(CC3)C[C@@H](NC[C@H](O)COc3cccc(S(=O)(=O)NC)c3)CO4)cnc21 [Compound 511, 3-((S)-3-((R)-8-(3-ethyl-3H-imidazo[4,5-b]pyridin-6-ylsulfonyl)-1-oxa-8-azaspiro[4.5]decan-3-ylamino)-2-hydroxypropoxy)-N-methylbenzenesulfonamide]",20.4
6,"CNS(=O)(=O)c1cccc(OC[C@@H](O)CN[C@@H]2COC3(CCN(S(=O)(=O)c4ccc5c(c4)NC(=O)CO5)CC3)C2)c1 [Compound 278, 3-((S)-2-hydroxy-3-((S)-8-(3-oxo-3,4-dihydro-2H-benzo[b][1,4]oxazin-6-ylsulfonyl)-1-oxa-8-azaspiro[4.5]decan-3-ylamino)propoxy)-N-methylbenzenesulfonamide]",12.8
7,"CNS(=O)(=O)c1cccc(OC[C@@H](O)CNC2COC3(CCN(S(=O)(=O)c4cccc(-c5ccc(NS(C)(=O)=O)cc5)c4)CC3)C2)c1 (stereo partly drawn) [Compound 86, 3-((2S)-2-hydroxy-3-(8-(4′-(methylsulfonamido)biphenyl-3-ylsulfonyl)-1-oxa-8-azaspiro[4.5]decan-3-ylamino)propoxy)-N-methylbenzenesulfonamide]",9.36
8,"COc1ccc(S(=O)(=O)N2CCC3(CC2)CC(NC[C@H](O)COc2cccc(S(=O)(=O)N(C)C)c2)CO3)cc1C (stereo partly drawn) [Compound 247, 3-((2S)-2-hydroxy-3-(8-(4-methoxy-3-methylphenylsulfonyl)-1-oxa-8-azaspiro[4.5]decan-3-ylamino)propoxy)-N,N-dimethylbenzenesulfonamide]",27.2
9,"CNS(=O)(=O)c1cccc(OC[C@@H](O)CN[C@H]2COC3(CCN(S(=O)(=O)c4cnc5[nH]cc(C#N)c5c4)CC3)C2)c1 [Compound 493, 3-((S)-3-((R)-8-(3-cyano-1H-pyrrolo[2,3-b]pyridin-5-ylsulfonyl)-1-oxa-8-azaspiro[4.5]decan-3-ylamino)-2-hydroxypropoxy)-N-methylbenzenesulfonamide]",10.6
10,"CNS(=O)(=O)c1cccc(OC[C@@H](O)CNC2COC3(CCN(S(=O)(=O)c4cc(OC)ccc4C#N)CC3)C2)c1 (stereo partly drawn) [Compound 263, 3-((2S)-3-(8-(2-cyano-5-methoxyphenylsulfonyl)-1-oxa-8-azaspiro[4.5]decan-3-ylamino)-2-hydroxypropoxy)-N-methylbenzenesulfonamide]",30.8
11,"CNS(=O)(=O)c1cccc(OC[C@@H](O)CN[C@H]2COC3(CCN(S(=O)(=O)c4cnc5[nH]cc(C)c5c4)CC3)C2)c1 [Compound 512, 3-((S)-2-hydroxy-3-((R)-8-(3-methyl-1H-pyrrolo[2,3-b]pyridin-5-ylsulfonyl)-1-oxa-8-azaspiro[4.5]decan-3-ylamino)propoxy)-N-methylbenzenesulfonamide]",6.62
12,"CNS(=O)(=O)c1cccc(OC[C@@H](O)CNC2COC3(CCN(S(=O)(=O)c4ccc5c(c4)N(C)CCO5)CC3)C2)c1 (stereo partly drawn) [Compound 189, 3-((2S)-2-hydroxy-3-(8-(4-methyl-3,4-dihydro-2H-benzo[b][1,4]oxazin-6-ylsulfonyl)-1-oxa-8-azaspiro[4.5]decan-3-ylamino)propoxy)-N-methylbenzenesulfonamide]",8.51
13,"CNS(=O)(=O)c1cccc(OC[C@@H](O)CNC2COC3(CCN(S(=O)(=O)c4ccc5c(c4)N(CC(C)C)CCO5)CC3)C2)c1 (stereo partly drawn) [Compound 349, 3-((2S)-2-hydroxy-3-(8-(4-isobutyl-3,4-dihydro-2H-benzo[b][1,4]oxazin-6-ylsulfonyl)-1-oxa-8-azaspiro[4.5]decan-3-ylamino)propoxy)-N-methylbenzenesulfonamide]",67.9
14,"CNS(=O)(=O)c1cccc(OC[C@@H](O)CN[C@H]2COC3(CCN(S(=O)(=O)c4cc(C)cc5c(O)ccnc45)CC3)C2)c1 [Compound 547, 3-((S)-2-hydroxy-3-((R)-8-(4-hydroxy-6-methylquinolin-8-ylsulfonyl)-1-oxa-8-azaspiro[4.5]decan-3-ylamino)propoxy)-N-methylbenzenesulfonamide]",179
15,"CNS(=O)(=O)c1cccc(OC[C@@H](O)CN[C@H]2COC3(CCN(S(=O)(=O)c4cc5c(nc4N(C)C)OCCN5C)CC3)C2)c1 [Compound 453, 3-((S)-3-((R)-8-(6-(dimethylamino)-1-methyl-2,3-dihydro-1H-pyrido[2,3-b][1,4]oxazin-7-ylsulfonyl)-1-oxa-8-azaspiro[4.5]decan-3-ylamino)-2-hydroxypropoxy)-N-methylbenzenesulfonamide]",115
16,"CCCn1cc(S(=O)(=O)N2CCC3(CC2)C[C@@H](NC[C@H](O)COc2cccc(S(N)(=O)=O)c2)CO3)c(=O)c2ccccc21 [Compound 551, 3-((S)-2-hydroxy-3-((R)-8-(4-oxo-1-propyl-1,4-dihydroquinolin-3-ylsulfonyl)-1-oxa-8-azaspiro[4.5]decan-3-ylamino)propoxy)benzenesulfonamide]",74.7
17,"CNS(=O)(=O)c1cccc(OC[C@@H](O)CNC2COC3(CCN(S(=O)(=O)c4c(C)ccc5nonc45)CC3)C2)c1 (stereo partly drawn) [Compound 175, 3-((2S)-2-hydroxy-3-(8-(5-methylbenzo[c][1,2,5]oxadiazol-4-ylsulfonyl)-1-oxa-8-azaspiro[4.5]decan-3-ylamino)propoxy)-N-methylbenzenesulfonamide]",23.8
18,"CNS(=O)(=O)c1cccc(OC[C@@H](O)CN[C@H]2COC3(CCN(S(=O)(=O)c4cnc5[nH]cnc5c4C)CC3)C2)c1 [Compound 519, 3-((S)-2-hydroxy-3-((R)-8-(7-methyl-3H-imidazo[4,5-b]pyridin-6-ylsulfonyl)-1-oxa-8-azaspiro[4.5]decan-3-ylamino)propoxy)-N-methylbenzenesulfonamide]",68.4
19,"CNS(=O)(=O)c1cccc(OC[C@@H](O)CN[C@@H]2COC3(CCN(S(=O)(=O)c4cnc5c(c4)N(C)CCO5)CC3)C2)c1 [Compound 413, 3-((S)-2-hydroxy-3-((S)-8-(1-methyl-2,3-dihydro-1H-pyrido[2,3-b][1,4]oxazin-7-ylsulfonyl)-1-oxa-8-azaspiro[4.5]decan-3-ylamino)propoxy)-N-methylbenzenesulfonamide]",14
20,"CNS(=O)(=O)c1cccc(OC[C@@H](O)CNC2COC3(CCN(S(=O)(=O)c4ccc(Br)cc4)CC3)C2)c1 (stereo partly drawn) [Compound 52, 3-((2S)-3-(8-(4-bromophenylsulfonyl)-1-oxa-8-azaspiro[4.5]decan-3-ylamino)-2-hydroxypropoxy)-N-methylbenzenesulfonamide]",14.1
21,"CNS(=O)(=O)c1cccc(OC[C@@H](O)CNC2COC3(CCN(S(=O)(=O)c4ccc(-c5ccccn5)cc4)CC3)C2)c1 (stereo partly drawn) [Compound 402, 3-((2S)-2-hydroxy-3-(8-(4-(pyridin-2-yl)phenylsulfonyl)-1-oxa-8-azaspiro[4.5]decan-3-ylamino)propoxy)-N-methylbenzenesulfonamide]",20.4
22,"CN(C)S(=O)(=O)c1cccc(OC[C@@H](O)CNC2COC3(CCN(S(=O)(=O)c4ccc5ccccc5c4)CC3)C2)c1 (stereo partly drawn) [Compound 4, 3-((2S)-2-hydroxy-3-(8-(naphthalen-2-ylsulfonyl)-1-oxa-8-azaspiro[4.5]decan-3-ylamino)propoxy)-N,N-dimethylbenzenesulfonamide]",11.2
23,"CNS(=O)(=O)c1cccc(OC[C@@H](O)CN[C@H]2COC3(CCN(S(=O)(=O)c4ccc5c(c4)NC(=O)CO5)CC3)C2)c1 [Compound 279, 3-((S)-2-hydroxy-3-((R)-8-(3-oxo-3,4-dihydro-2H-benzo[b][1,4]oxazin-6-ylsulfonyl)-1-oxa-8-azaspiro[4.5]decan-3-ylamino)propoxy)-N-methylbenzenesulfonamide]",31.6
24,"CNS(=O)(=O)c1cccc(OC[C@@H](O)CNC2COC3(CCN(S(=O)(=O)c4cc(C)ccc4C)CC3)C2)c1 (stereo partly drawn) [Compound 154, 3-((2S)-3-(8-(2,5-dimethylphenylsulfonyl)-1-oxa-8-azaspiro[4.5]decan-3-ylamino)-2-hydroxypropoxy)-N-methylbenzenesulfonamide]",34.4

# From US11987588B2, “Modulators of the beta-3 adrenergic receptor useful for the treatment or prevention of heart failure and disorders related thereto” (Arena Pharmaceuticals, Inc., priority 2017, dated 2024)
